Test results published in patent US20250129099A1, “INHIBITOR OF APOPTOSIS (IAP) PROTEIN ANTAGONISTS” (Sanford Burnham Prebys Medical Discovery Institute, priority 2021, published 2025).
Structures can show the parent of a compound that is named as a salt. Where two headings read alike, the source gives them in different places.

What was measured:
SKOV-3 cancer cell lines = assay: Cell viability of SKOV-3 cancer cell lines after treatment with test compound; assay type: cell-based
Description: […] Cell viability is evaluated following treatment with a compound as disclosed in Table B. Viability of cancer cells following treatment is indicated according to the following legend:

OVCAR-4 = assay: Cell viability of OVCAR-4 cells after treatment with test compound; assay type: cell-based
[1] = Homo sapiens, SK-OV-3, SKOV-3 cancer cells

In the case of CN[C@@H](C)C(=O)N[C@H]1CCS[C@H]2CC(C)(C)[C@@H](C(=O)N[C@@H]3CCOc4ccccc43)N2C1=O [Compound 1, (4S,7S)—N—((R)-chroman-4-yl)-8,8-dimethyl-4-((S)-2-(methylamino)propanamido)-5-oxooctahydropyrrolo[2,1-b][1,3]thiazepine-7-carboxamide hydrochloride], the IC50 (SKOV-3 cancer cell lines; [1]) is reported as 1 to 10 nM and the IC50 (OVCAR-4; Homo sapiens) is reported as 10 to 100 nM.
CN[C@@H](C)C(=O)N[C@H]1CCS[C@H]2CC(C)(C)[C@@H](C(=O)N[C@@H]3CCSc4ccccc43)N2C1=O [Compound 2, (4S,7S)-8,8-dimethyl-4-((S)-2-(methylamino)propanamido)-5-oxo-N—((R)-thiochroman-4-yl)octahydropyrrolo[2,1-b][1,3]thiazepine-7-carboxamide hydrochloride] was tested, and the IC50 (SKOV-3 cancer cell lines; [1]) was 1 to 10 nM and the IC50 (OVCAR-4; Homo sapiens) was 100 to 1000 nM.
CN[C@@H](C)C(=O)N[C@H]1CCS[C@H]2CC3(CC=CC3)[C@@H](C(=O)N[C@@H]3CCOc4ccccc43)N2C1=O [Compound 3, (4′S,7′S,9a'S)-4′-((S)-2-(chloro(methyl)-15-azaneyl)propanamido)-N—((R)-chroman-4-yl)-5′-oxo-2′,3′,4′,5′,9′,9a′-hexahydro-7′H-spiro[cyclopentane-1,8′-pyrrolo[2,1-b][1,3]thiazepin]-3-ene-7′-carboxamide] was tested, and the IC50 (SKOV-3 cancer cell lines; [1]) was 1 to 10 nM and the IC50 (OVCAR-4; Homo sapiens) was 10 to 100 nM.
Compound CN[C@@H](C)C(=O)N[C@H]1CCS[C@H]2CC3(CC=CC3)[C@@H](C(=O)N[C@@H]3CCSc4ccccc43)N2C1=O [Compound 4, (4′S,7′S,9a'S)-4′-((S)-2-(chloro(methyl)-15-azaneyl)propanamido)-5′-oxo-N—((R)-thiochroman-4-yl)-2′,3′,4′,5′,9′,9a′-hexahydro-7′H-spiro[cyclopentane-1,8′-pyrrolo[2,1-b][1,3]thiazepin]-3-ene-7′-carboxamide] has an IC50 (SKOV-3 cancer cell lines; [1]) of 1 to 10 nM and an IC50 (OVCAR-4; Homo sapiens) of 100 to 1000 nM.
For CN[C@@H](C)C(=O)N[C@H]1CCS[C@H]2CC3(CCCC3)[C@@H](C(=O)N[C@@H]3CCOc4ccccc43)N2C1=O [Compound 5, (4′S,7′S,9a'S)-4′-((S)-2-(chloro(methyl)-15-azaneyl)propanamido)-N-(chroman-4-yl)-5′-oxohexahydro-7′H-spiro[cyclopentane-1,8′-pyrrolo[2,1-b][1,3]thiazepine]-7′-carboxamide], the IC50 (SKOV-3 cancer cell lines; [1]) was 1 to 10 nM and the IC50 (OVCAR-4; Homo sapiens) was 10 to 100 nM.
CN[C@@H](C)C(=O)N[C@H]1CCS[C@H]2CC3(CCCC3)[C@@H](C(=O)N[C@@H]3CCSc4ccccc43)N2C1=O [Compound 6, (4′S,7′S,9a'S)-4′-((S)-2-(chloro(methyl)-15-azaneyl)propanamido)-5′-oxo-N—((R)-thiochroman-4-yl)hexahydro-7′H-spiro[cyclopentane-1,8′-pyrrolo[2,1-b][1,3]thiazepine]-7′-carboxamide] showed an IC50 (SKOV-3 cancer cell lines; [1]) of 1 to 10 nM and an IC50 (OVCAR-4; Homo sapiens) of 100 to 1000 nM.
CN[C@@H](C)NC(=O)N[C@H]1CCSC2CC(C)(C)[C@@H](C(=O)N[C@@H]3CCOc4ccccc43)N2C1=O (stereo partly drawn) [Compound 7, (4S,7S)—N—((R)-chroman-4-yl)-8,8-dimethyl-4-(3-((R)-1-(methylamino)ethyl)ureido)-5-oxooctahydropyrrolo[2,1-b][1,3]thiazepine-7-carboxamide hydrochloride] was tested, and the IC50 (SKOV-3 cancer cell lines; [1]) was over 1000 nM and the IC50 (OVCAR-4; Homo sapiens) was over 1000 nM.
In the case of CC[C@H](NC)C(=O)N[C@H]1CCSC2CC(C)(C)[C@@H](C(=O)N[C@@H]3CCOc4ccccc43)N2C1=O (stereo partly drawn) [Compound 8, (4S,7S)—N—((R)-chroman-4-yl)-8,8-dimethyl-4-((S)-2-(methylamino)butanamido)-5-oxooctahydropyrrolo[2,1-b][1,3]thiazepine-7-carboxamide hydrochloride], the IC50 (SKOV-3 cancer cell lines; [1]) is reported as 1 to 10 nM and the IC50 (OVCAR-4; Homo sapiens) is reported as 10 to 100 nM.
CN[C@@H](C)C(=O)N[C@H]1CCO[C@H]2CC3(CCCC3)[C@@H](C(=O)N[C@@H]3CCOc4ccccc43)N2C1=O [Compound 9, (4′S,7′S,9a'S)-4′-((S)-2-(chloro(methyl)-16-azaneyl)propanamido)-N-(chroman-4-yl)-5′-oxohexahydro-7′H-spiro[cyclopentane-1,8′-pyrrolo[2,1-b][1,3]oxazepine]-7′-carboxamide] was tested, and the IC50 (SKOV-3 cancer cell lines; [1]) was 1 to 10 nM and the IC50 (OVCAR-4; Homo sapiens) was 100 to 1000 nM.
With CC[C@H](NC)C(=O)N[C@H]1CCO[C@H]2CC3(CCCC3)[C@@H](C(=O)N[C@@H]3CCOc4ccccc43)N2C1=O [Compound 10, (4′S,7′S,9a'S)-4′-((S)-2-(chloro(methyl)-16-azaneyl)butanamido)-N-(chroman-4-yl)-5′-oxohexahydro-7′H-spiro[cyclopentane-1,8′-pyrrolo[2,1-b][1,3]oxazepine]-7′-carboxamide] the IC50 (SKOV-3 cancer cell lines; [1]) was 1 to 10 nM and the IC50 (OVCAR-4; Homo sapiens) was 100 to 1000 nM.
Work on CN[C@@H](C)C(=O)N[C@H]1CCS[C@H]2CC3(CC=CC3)[C@@H](C(=O)N[C@@H]3CCCc4ccccc43)N2C1=O [Compound 11, (4′S,7′S,9a'S)-4′-((S)-2-(chloro(methyl)-15-azaneyl)propanamido)-5′-oxo-N-(1,2,3,4-tetrahydronaphthalen-1-yl)-2′,3′,4′,5′,9′,9a′-hexahydro-7′H-spiro[cyclopentane-1,8′-pyrrolo[2,1-b][1,3]thiazepin]-3-ene-7′-carboxamide] yielded an IC50 (SKOV-3 cancer cell lines; [1]) of 1 to 10 nM and an IC50 (OVCAR-4; Homo sapiens) of 10 to 100 nM.
CN[C@@H](C)C(=O)N[C@H]1CCO[C@H]2CC3(CC=CC3)[C@@H](C(=O)N[C@H]3CCOc4ccccc43)N2C1=O [Compound 12, (4′S,7′S,9a'S)-4′-((S)-2-(chloro(methyl)-15-azaneyl)propanamido)-N—((S)-chroman-4-yl)-5′-oxo-2′,3′,4′,5′,9′,9a′-hexahydro-7′H-spiro[cyclopentane-1,8′-pyrrolo[2,1-b][1,3]oxazepin]-3-ene-7′-carboxamide] gave an IC50 (SKOV-3 cancer cell lines; SKOV-3 cancer cells) of 100 to 1000 nM and an IC50 (OVCAR-4) of over 1000 nM.
With CC[C@H](NC)C(=O)N[C@H]1CCO[C@H]2CC3(CC=CC3)[C@@H](C(=O)N[C@@H]3CCOc4ccccc43)N2C1=O [Compound 13, (4′S,7′S,9a'S)-4′-((S)-2-(chloro(methyl)-16-azaneyl)butanamido)-N—((S)-chroman-4-yl)-5′-oxo-2′,3′,4′,5′,9′,9a′-hexahydro-7′H-spiro[cyclopentane-1,8′-pyrrolo[2,1-b][1,3]oxazepin]-3-ene-7′-carboxamide] the IC50 (SKOV-3 cancer cell lines; [1]) was 1 to 10 nM and the IC50 (OVCAR-4; Homo sapiens) was 100 to 1000 nM.
